Results published in US20220002283A1 (Mylan Laboratories Limited, priority 2019, published 2022).
One block for each compound: values may come before it.

Columns and labels:
[1] = physchem
[2] = cited from earlier work
[3] = Solid state stability, PXRD; type: physicochemical; set-up: key: X: crystalline; S: stable
[4] = Solid state stability, impurities by HPLC; type: physicochemical
[5] = Solid state stability, HPLC meloxicam co-crystal assay; type: physicochemical; details: for A %: Co-former Assay % / M %: Meloxicam Assay %: samples as per Examples 1, 2, 3
[6] = Solid state stability, physical and chemical (PXRD and HPLC), overall finding; details: 40° C./75% RH and 25° C./60% RH, three months
[7] = 25° C./60% RH, 1 mo., samples as per Example 7 or 17
[8] = 25° C./60% RH, 2 mo., samples as per Example 7 or 17
[9] = 25° C./60% RH, 3 mo., samples as per Example 7 or 17
[10] = 25° C./60% RH, Initial, samples as per Example 7 or 17
[11] = 40° C./75% RH, 1 mo., samples as per Example 7, 17 or 14
[12] = 40° C./75% RH, 2 mo., samples as per Example 7, 17 or 14
[13] = 40° C./75% RH, 3 mo., samples as per Example 7 or 17
[14] = 40° C./75% RH, Initial, samples as per Example 7, 17 or 14

pKa [1]: -0.38
Compound: O=C(O)c1ccc(O)cc1 [4-Hydroxybenzoic acid]
pKa (co-former) [2]: 4.58

pKa [1]: 1.5
Compound: O=C(O)c1ccc2ccccc2c1O [1-Hydroxy-2-naphthoic acid]

Compound: Cc1cnc(NC(=O)C2=C(O)c3ccccc3S(=O)(=O)N2C)s1.O=C(O)c1ccc2ccccc2c1O
PXRD [3, 7]: S
PXRD ([3]; 25° C./60% RH, 1 mo., samples as per Examples 1, 2, 3): S
PXRD [3, 8]: S
PXRD ([3]; 25° C./60% RH, 2 mo., samples as per Examples 1, 2, 3): S
PXRD [3, 9]: S
PXRD ([3]; 25° C./60% RH, 3 mo., samples as per Examples 1, 2, 3): S
PXRD [3, 10]: X
PXRD ([3]; 25° C./60% RH, Initial, samples as per Examples 1, 2, 3): X
PXRD [3, 11]: S
PXRD ([3]; 40° C./75% RH, 1 mo., samples as per Examples 1, 2, 3): S
PXRD [3, 12]: S
PXRD ([3]; 40° C./75% RH, 2 mo., samples as per Examples 1, 2, 3): S
PXRD [3, 13]: S
PXRD ([3]; 40° C./75% RH, 3 mo., samples as per Examples 1, 2, 3): S
PXRD [3, 14]: X
PXRD ([3]; 40° C./75% RH, Initial, samples as per Examples 1, 2, 3): X
Impurities (% w/w, by HPLC) Methyl Meloxicam [4, 7]: 0.01 % w/w
Impurities (% w/w, by HPLC) Other* (any other individual impurity) [4, 7]: 0.03 % w/w
Impurities (% w/w, by HPLC) Total [4, 7]: 0.08 % w/w
Impurities (% w/w, by HPLC) Methyl Meloxicam [4, 8]: 0.01 % w/w
Impurities (% w/w, by HPLC) Other* (any other individual impurity) [4, 8]: 0.03 % w/w
Impurities (% w/w, by HPLC) Total [4, 8]: 0.13 % w/w
Impurities (% w/w, by HPLC) Methyl Meloxicam [4, 9]: 0.01 % w/w
Impurities (% w/w, by HPLC) Other* (any other individual impurity) [4, 9]: 0.03 % w/w
Impurities (% w/w, by HPLC) Total [4, 9]: 0.08 % w/w
Impurities (% w/w, by HPLC) Methyl Meloxicam [4, 10]: 0.01 % w/w
Impurities (% w/w, by HPLC) Other* (any other individual impurity) [4, 10]: 0.02 % w/w
Impurities (% w/w, by HPLC) Total [4, 10]: 0.05 % w/w
Impurities (% w/w, by HPLC) Methyl Meloxicam [4, 11]: 0.01 % w/w
Impurities (% w/w, by HPLC) Other* (any other individual impurity) [4, 11]: 0.03 % w/w
Impurities (% w/w, by HPLC) Total [4, 11]: 0.09 % w/w
Impurities (% w/w, by HPLC) Methyl Meloxicam [4, 12]: 0.01 % w/w
Impurities (% w/w, by HPLC) Other* (any other individual impurity) [4, 12]: 0.03 % w/w
Impurities (% w/w, by HPLC) Total [4, 12]: 0.13 % w/w
Impurities (% w/w, by HPLC) Methyl Meloxicam [4, 13]: 0.01 % w/w
Impurities (% w/w, by HPLC) Other* (any other individual impurity) [4, 13]: 0.03 % w/w
Impurities (% w/w, by HPLC) Total [4, 13]: 0.10 % w/w
Impurities (% w/w, by HPLC) Methyl Meloxicam [4, 14]: 0.01 % w/w
Impurities (% w/w, by HPLC) Other* (any other individual impurity) [4, 14]: 0.03 % w/w
Impurities (% w/w, by HPLC) Total [4, 14]: 0.06 % w/w
Meloxicam Related Compounds A, B, C, and D by HPLC ([4]; any timepoint from initiation up to 3 months, 40° C./75% RH and 25° C./60% RH): ^#Meloxicam Related Compounds A, B, C, and D (see Table 4) were not detectable at any timepoint from initiation up to 3 months.
Assay (% by HPLC) M % (Meloxicam Assay %) [5, 7]: 65.0%
A %: Co-former Assay % ([5]; 25° C./60% RH, 1 mo.): 34.5%
M %: Meloxicam Assay % ([5]; 25° C./60% RH, 1 mo.): 64.7%
Assay (% by HPLC) M % (Meloxicam Assay %) [5, 8]: 63.5%
A %: Co-former Assay % ([5]; 25° C./60% RH, 2 mo.): 35.0%
M %: Meloxicam Assay % ([5]; 25° C./60% RH, 2 mo.): 65.0%
Assay (% by HPLC) M % (Meloxicam Assay %) [5, 9]: 64.3%
A %: Co-former Assay % ([5]; 25° C./60% RH, 3 mo.): 34.0%
M %: Meloxicam Assay % ([5]; 25° C./60% RH, 3 mo.): 64.6%
Assay (% by HPLC) M % (Meloxicam Assay %) [5, 10]: 65.1%
A %: Co-former Assay % ([5]; 25° C./60% RH, Initial): 34.2%
M %: Meloxicam Assay % ([5]; 25° C./60% RH, Initial): 64.3%
Assay (% by HPLC) M % (Meloxicam Assay %) [5, 11]: 64.7%
A %: Co-former Assay % ([5]; 40° C./75% RH, 1 mo.): 34.9%
M %: Meloxicam Assay % ([5]; 40° C./75% RH, 1 mo.): 64.9%
Assay (% by HPLC) M % (Meloxicam Assay %) [5, 12]: 64.0%
M %: Meloxicam Assay % ([5]; 40° C./75% RH, 2 mo.): 64.8%
Assay (% by HPLC) M % (Meloxicam Assay %) [5, 13]: 64.4%
A %: Co-former Assay % ([5]; 40° C./75% RH, 3 mo.): 34.2%
M %: Meloxicam Assay % ([5]; 40° C./75% RH, 3 mo.): 65.5%
Assay (% by HPLC) M % (Meloxicam Assay %) [5, 14]: 65.2%
A %: Co-former Assay % ([5]; 40° C./75% RH, Initial): 34.2%
M %: Meloxicam Assay % ([5]; 40° C./75% RH, Initial): 64.3%
physical and chemical stability [6]: physically and chemically stable

pKa [1]: -0.46
Compound: O=C(O)CCc1ccccc1 [Hydrocinnamic acid]
pKa (co-former) [2]: 4.66
